Assay results reported in BindingDB's records for doi:10.1016/j.bmcl.2019.06.040 (Shenyang Pharmaceutical University, 2019).

Biological target: T1, Cytochrome P450 11B2, mitochondrial (Homo sapiens, UniProt P19099)
T1 sequence (P19099 whole entry): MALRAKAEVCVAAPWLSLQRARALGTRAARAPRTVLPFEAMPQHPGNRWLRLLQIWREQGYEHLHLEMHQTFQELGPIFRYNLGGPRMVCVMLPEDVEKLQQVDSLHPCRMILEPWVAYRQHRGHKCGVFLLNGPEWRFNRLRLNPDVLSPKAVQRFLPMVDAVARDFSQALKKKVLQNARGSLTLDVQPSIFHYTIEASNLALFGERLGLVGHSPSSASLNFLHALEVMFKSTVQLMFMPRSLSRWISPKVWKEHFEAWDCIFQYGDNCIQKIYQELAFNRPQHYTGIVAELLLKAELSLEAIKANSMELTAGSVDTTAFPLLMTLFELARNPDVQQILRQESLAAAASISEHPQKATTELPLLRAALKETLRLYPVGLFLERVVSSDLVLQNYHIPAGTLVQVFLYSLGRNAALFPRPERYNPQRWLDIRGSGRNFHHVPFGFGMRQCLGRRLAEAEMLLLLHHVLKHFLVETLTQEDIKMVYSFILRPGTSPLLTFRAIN
Assay: Inhibition of CYP11B2 (unknown origin)

SMILES	IC50 [nM]
Fc1cc(-c2cccnc2)cc2c1-n1cnnc1CC2	172
Fc1cc2c(cc1-c1cccnc1)CCc1nncn1-2	244
Cc1nnc2n1-c1cc(F)c(-c3cccnc3)cc1CC2	131
Cc1nnc2n1-c1c(F)cc(-c3cccnc3)cc1CC2	63
